This is an account of results in ChEMBL document CHEMBL3751718, “Synthesis and biological evaluation of lipid-like 5-(2-hydroxyethyl)-4-methyl-1,3-thiazole derivatives as potential anticancer and antimicrobial agents” (Medchemcomm, 2015).

Activity calls are given as the source filed them. The rule behind the calls is not given here.

Series [1] has as its system MG-22A. The experiment in a line: Cytotoxicity against mouse MG-22A cells assessed as cell viability at 6.25 to 50 ug/ml by crystal violet-based assay. The note with it: for CC50: read-out: LC50 (the source's name). The format is functional.
Series [2] has as its system MG-22A. The experiment in a line: Cytotoxicity against mouse MG-22A cells assessed as cell viability at 6.25 to 50 ug/ml after 72 hrs by MTT assay. It is filed as functional. The settings on record: for CC50: read-out: LC50 (the source's name). A general note: Tetrazolium assays rely on reduction of a dye to a coloured formazan, in cell work by metabolically active cells.

Series [3] deals with HT-1080. Description: Induction of nitric oxide production in human HT1080 cells by Griess assay. The format is functional. Also noted: concentration or dose not given beside the values. In general terms: Griess reagent forms a coloured azo dye with nitrite.
In series [4] the test system is MG-22A. The experiment in a line: Induction of nitric oxide production in mouse MG-22A cells by Griess assay. The format is functional. Also noted: concentration or dose not given beside the values.
Series [5] concerns HT-1080. Description: (§1) Cytotoxicity against human HT1080 cells assessed as cell viability at 6.25 to 50 ug/ml after 72 hrs by MTT assay. It is filed as functional.
The test system of series [6] is HT-1080. The experiment in a line: (§2) Cytotoxicity against human HT1080 cells assessed as cell viability at 6.25 to 50 ug/ml by crystal violet-based assay. The format is functional.
For series [7], the system named is Aspergillus niger. Description: Antifungal activity against Aspergillus niger MSCL 324 at 5 mg/ml after 48 hrs by agar dish diffusion method. It is filed as functional. The settings on record: MSCL 324, 48 h, read-out: DIZ.
In series [8] the test system is Bacillus cereus. The experiment in a line: Antibacterial activity against Bacillus cereus MSCL 330 after 24 hrs by broth dilution method. It is filed as functional. The settings on record: MSCL 330, 24 h. (Dilution methods test growth across graded concentrations, often in twofold steps.)
Series [9] relates to Pseudomonas aeruginosa. Description: Antibacterial activity against Pseudomonas aeruginosa MSCL 331 at 10 mg/ml after 24 hrs by agar dish diffusion method. It is filed as functional. The note with it: MSCL 331, 24 h, read-out: DIZ.
Series [10] has as its system Staphylococcus aureus. The experiment in a line: Bactericidal activity against Staphylococcus aureus MSCL 334 incubated for 24 hrs followed by colony transfer to agar plates for 24 hrs by colony counting based assay. It is filed as functional. The note with it: MSCL 334, 24 h, read-out: MBC99.9.
Series [11] can be described thus: Cytotoxicity against mouse NIH/3T3 cells assessed as cell viability at 6.25 to 50 ug/ml by neutral red-based assay. The settings on record: nih3t3.
Series [12] concerns Candida albicans. Description: Fungicidal activity against Candida albicans MSCL 378 incubated for 24 hrs followed by colony transfer to agar plates for 24 hrs by colony counting based assay. It is filed as functional. The note with it: MSCL 378, 24 h, read-out: MFC99.9.
Series [13] concerns Candida albicans. The experiment in a line: Antifungal activity against Candida albicans MSCL 378 at 10 mg/ml after 48 hrs by agar dish diffusion method. The settings on record: MSCL 378, 48 h, read-out: DIZ. The format is functional.
Series [14] is described as follows: as §1. It is filed as functional. The note with it: HT-1080, 72 h, read-out: LC50 (the source's name).
The subject of series [15] is Aspergillus niger. The experiment in a line: Fungicidal activity against Aspergillus niger MSCL 324 incubated for 24 hrs followed by colony transfer to agar plates for 24 hrs by colony counting based assay. It is filed as functional. The note with it: MSCL 324, 24 h, read-out: MFC99.9.
In series [16] the test system is Candida albicans. Description: Antifungal activity against Candida albicans MSCL 378 at 5 mg/ml after 48 hrs by agar dish diffusion method. It is filed as functional. The note with it: MSCL 378, 48 h, read-out: DIZ.
For series [17], the system named is Escherichia coli. The experiment in a line: Antibacterial activity against Escherichia coli MSCL 332 at 5 mg/ml after 24 hrs by agar dish diffusion method. It is filed as functional. The note with it: MSCL 332, 24 h, read-out: DIZ.
Series [18] has as its system Escherichia coli. The experiment in a line: Bactericidal activity against Escherichia coli MSCL 332 incubated for 24 hrs followed by colony transfer to agar plates for 24 hrs by colony counting based assay. It is filed as functional. The note with it: MSCL 332, 24 h, read-out: MBC99.9.
Series [19] relates to Aspergillus niger. The experiment in a line: Antifungal activity against Aspergillus niger MSCL 324 after 24 hrs by broth dilution method. The settings on record: MSCL 324, 24 h. The format is functional.
In series [20] the test system is Staphylococcus aureus. Description: Antibacterial activity against Staphylococcus aureus MSCL 334 after 24 hrs by broth dilution method. The format is functional. The note with it: MSCL 334, 24 h.
Series [21] concerns Proteus mirabilis. The experiment in a line: Antibacterial activity against Proteus mirabilis MSCL 590 at 5 mg/ml after 24 hrs by agar dish diffusion method. The format is functional. The note with it: MSCL 590, 24 h, read-out: DIZ.
For series [22], the system named is Candida albicans. Description: Antifungal activity against Candida albicans MSCL 378 after 24 hrs by broth dilution method. It is filed as functional. The note with it: MSCL 378, 24 h.
For series [23], the system named is Staphylococcus aureus. Description: Antibacterial activity against Staphylococcus aureus MSCL 334 at 10 mg/ml after 24 hrs by agar dish diffusion method. It is filed as functional. The settings on record: MSCL 334, 24 h, read-out: DIZ.
Series [24] relates to Bacillus cereus. Description: Antibacterial activity against Bacillus cereus MSCL 330 at 10 mg/ml after 24 hrs by agar dish diffusion method. It is filed as functional. The note with it: MSCL 330, 24 h, read-out: DIZ.
Series [25] concerns Bacillus cereus. Description: Antibacterial activity against Bacillus cereus MSCL 330 at 5 mg/ml after 24 hrs by agar dish diffusion method. It is filed as functional. The note with it: MSCL 330, 24 h, read-out: DIZ.
For series [26], the system named is Aspergillus niger. The experiment in a line: Antifungal activity against Aspergillus niger MSCL 324 at 10 mg/ml after 48 hrs by agar dish diffusion method. The format is functional. The note with it: MSCL 324, 48 h, read-out: DIZ.
Series [27] can be described thus: as §2. The format is functional. The settings on record: HT-1080, read-out: LC50 (the source's name).
In series [28] the test system is Escherichia coli. Description: Antibacterial activity against Escherichia coli MSCL 332 after 24 hrs by broth dilution method. The settings on record: MSCL 332, 24 h. It is filed as functional.
The test system of series [29] is Staphylococcus aureus. The experiment in a line: Antibacterial activity against Staphylococcus aureus MSCL 334 at 5 mg/ml after 24 hrs by agar dish diffusion method. It is filed as functional. The note with it: MSCL 334, 24 h, read-out: DIZ.
The subject of series [30] is Proteus mirabilis. Description: Antibacterial activity against Proteus mirabilis MSCL 590 at 10 mg/ml after 24 hrs by agar dish diffusion method. It is filed as functional. The note with it: MSCL 590, 24 h, read-out: DIZ.
Series [31] has as its system Bacillus cereus. The experiment in a line: Bactericidal activity against Bacillus cereus MSCL 330 incubated for 24 hrs followed by colony transfer to agar plates for 24 hrs by colony counting based assay. The settings on record: MSCL 330, 24 h, read-out: MBC99.9. It is filed as functional.
Series [32] deals with Escherichia coli. Description: Antibacterial activity against Escherichia coli MSCL 332 at 10 mg/ml after 24 hrs by agar dish diffusion method. It is filed as functional. The note with it: MSCL 332, 24 h, read-out: DIZ.
Series [33] concerns Pseudomonas aeruginosa. The experiment in a line: Antibacterial activity against Pseudomonas aeruginosa MSCL 331 at 5 mg/ml after 24 hrs by agar dish diffusion method. It is filed as functional. The note with it: MSCL 331, 24 h, read-out: DIZ.

Regarding `Cc1ncsc1CCO`, the LC50 result in the series with MG-22A [1], in the series with MG-22A [2], in the series with HT-1080 [5] and in the series with HT-1080 [6] was “inactive” throughout. For the same compound, the Activity in the series with HT-1080 [3] and with MG-22A [4] was 4% each time.
On to `CCCCCCCCCC[n+]1csc(CCOCCCCCCC)c1C.[I-]`, for which the CC50 was found to be 0.19 µM with MG-22A [1], 1.96 µM with MG-22A [2], 3.93 µM in [14] and 3.93 µM in series [27]. For the same compound, the zone of inhibition at 5000 µg/mL is 17 mm with Aspergillus niger [7]; 20 mm in the series with Candida albicans [16]; 15 mm in the series with Escherichia coli [17]; 11 mm in the series with Proteus mirabilis [21]; 20 mm with Bacillus cereus [25]; 21 mm in the series on Staphylococcus aureus [29]. Moreover, the zone of inhibition at 5000 µg/mL with Pseudomonas aeruginosa [33] worked out at 16 mm. The MIC – broadly, the lowest concentration found to suppress growth – against Bacillus cereus [8] was 8 mg/L; with Aspergillus niger [19], 16 mg/L; against Staphylococcus aureus [20], 1 mg/L; in the series on Candida albicans [22], 16 mg/L; against Escherichia coli [28] it was 32 mg/L. Also, the zone of inhibition at 10000 µg/mL in the series on Pseudomonas aeruginosa [9] turned out to be 20 mm; in the series with Candida albicans [13], 21 mm; in the series on Staphylococcus aureus [23], 22 mm; in the series on Bacillus cereus [24], 21 mm; in the series on Aspergillus niger [26] it was 19 mm; in the series with Proteus mirabilis [30], 12 mm. In addition, the zone of inhibition at 10000 µg/mL with Escherichia coli [32] is 20 mm. The MBC in the series with Staphylococcus aureus [10] is 4 mg/L; with Escherichia coli [18] it was 64 mg/L; in the series with Bacillus cereus [31], 32 mg/L. Also, the results for the Activity with HT-1080 [3] and in the series on MG-22A [4] were 250% and 350%, respectively. Further, the LC50 (as a rule, the concentration that kills 50% of the test population) in series [11] turned out to be 19.6 µM. Further, the MFC with Candida albicans [12] and in the series on Aspergillus niger [15] was 16 mg/L in each case.
Regarding `CCCCCCCCCCOCCc1sc[n+](C)c1C.[I-]`, the CC50 was found to be 0.23 µM with MG-22A [1], 1.17 µM with MG-22A [2], 0.94 µM in series [14] and 0.47 µM in [27]. In addition, the zone of inhibition at 5000 µg/mL with Aspergillus niger [7] was found to be 12 mm; in the series on Candida albicans [16], 29 mm; with Escherichia coli [17], 15 mm; in the series with Proteus mirabilis [21] it was 17 mm; in the series with Bacillus cereus [25], 29 mm; in the series on Staphylococcus aureus [29] it was 25 mm. The zone of inhibition at 5000 µg/mL in the series on Pseudomonas aeruginosa [33] came out at 9 mm. Also, the MIC is 32 mg/L in the series on Bacillus cereus [8]; 16 mg/L against Aspergillus niger [19]; 2 mg/L in the series on Staphylococcus aureus [20]; 16 mg/L with Candida albicans [22]; 32 mg/L in the series with Escherichia coli [28]. Further, the zone of inhibition at 10000 µg/mL in the series with Pseudomonas aeruginosa [9] is 15 mm; with Candida albicans [13], 33 mm; in the series on Staphylococcus aureus [23], 25 mm; with Bacillus cereus [24] it was 30 mm; in the series with Aspergillus niger [26], 15 mm; with Proteus mirabilis [30], 20 mm. The zone of inhibition at 10000 µg/mL with Escherichia coli [32] came out at 20 mm. Further, the MBC is 4 mg/L with Staphylococcus aureus [10], 32 mg/L with Escherichia coli [18] and 64 mg/L with Bacillus cereus [31]. The Activity with HT-1080 [3] and with MG-22A [4] was 150% in each case. The LC50 in [11] was determined as 37.6 µM. The MFC in the series on Candida albicans [12] and in the series on Aspergillus niger [15] was 32 mg/L throughout.
